# Experimental data from patent publication US20150105252A1, “SUBSTITUTED PYRAZOLES AS HERBICIDES” (E I DU PONT DE NEMOURS AND COMPANY, priority 2013, published 2015).
# Assays:
# [1] = tested on: goosegrass; assay: Test C postemergence; format: in vivo, Eleusine indica; conditions: for Goosegrass plant response rating: scale 0 to 100
# Text: (§1) Seeds of plant species selected from blackgrass (Alopecurus myosuroides), ryegrass, Italian (Italian ryegrass, Lolium multiflorum), wheat (winter wheat, Triticum aestivum), galium (catchweed bedstraw, Galium aparine), corn (Zea mays), crabgrass, large (large crabgrass, Digitaria sanguinalis), foxtail, giant (giant foxtail, Setaria faberii), johnsongrass (Sorghum halepense), lambsquarters (Chenopodium album), morningglory (Ipomoea coccinea), nutsedge, yellow (yellow nutsedge, Cyperus esculentus), pigweed (redroot pigweed, Amaranthus retroflexus), ragweed (common ragweed, Ambrosia elation), soybean (Glycine max), barnyardgrass (Echinochloa crus-galli), oilseed rape (Brassica napus), waterhemp (common waterhemp, Amaranthus rudis), oat, wild (wild oat, Avena fatua), kochia (Kochia scoparia), Surinam grass (Brachiaria decumbens), foxtail, green (green foxtail, Setaria viridis), goosegrass (Eleusine indica), bromegrass, downy (downy bromegrass, Bromus tectorum), nightshade (eastern black nightshade, Solanum ptycanthum), cocklebur (common cocklebur, Xanthium strumarium), cupgrass, woolly (woolly cupgrass, Eriochloa villosa), bermudagrass (Cynodon dactylon), sunflower, (common oilseed sunflower, Helianthus annuus), Russian thistle (Salsola kali), and velvetleaf (Abutilon theophrasti) were planted into a blend of loam soil and sand and treated preemergence with test chemicals formulated in a non-phytotoxic solvent mixture which included a surfactant.
# (§2) At the same time, plants selected from these crop and weed species and also chickweed (common chickweed, Stellaria media), canarygrass (littleseed canarygrass, Phalaris minor), and deadnettle (henbit deadnettle, Lamium amplexicaule), were planted in pots containing Redi-Earth® planting medium (Scotts Company, 14111 Scottslawn Road, Marysville, Ohio 43041) comprising spaghnum peat moss, vermiculite, wetting agent and starter nutrients and treated with postemergence applications of test chemicals formulated in the same manner. Plants ranged in height from 2 to 18 cm (1- to 4-leaf stage) for postemergence treatments. Treated plants and controls were maintained in a greenhouse for 13 to 15 days, after which time all species were compared to controls and visually evaluated. Plant response ratings, summarized in Table C, are based on a scale of 0 to 100 where 0 is no effect and 100 is complete control. A dash (-) response means no test result.
# [2] = tested on: bromegrass, downy; assay: Test C postemergence; format: in vivo, Bromus tectorum; conditions: for Bromegrass, Downy plant response rating: scale 0 to 100
# Text: as §1, §2
# [3] = tested on: bromegrass, downy; assay: Test C preemergence; format: in vivo, Bromus tectorum; conditions: for Plant response rating (scale of 0 to 100), Bromegrass, Downy: Preemergence, 250 g ai/ha; for Bromegrass, Downy plant response rating / Plant response rating, Bromegrass, Downy: preemergence; for Plant response rating, Bromegrass, Downy: 62 g ai/ha, scale 0 to 100, 0 = no effect, 100 = complete control
# Text: as §1, §2
# [4] = tested on: Surinam grass; assay: Test F preemergence; format: in vivo, Brachiaria decumbens
# Text: Seeds of plant species selected from corn (Zea mays), soybean (Glycine max), velvetleaf (Abutilon theophrasti), lambsquarters (Chenopodium album), wild poinsettia (Euphorbia heterophylla), pigweed, palmer (palmer pigweed, Amaranthus palmeri), common waterhemp (Amaranthus rudis), surinam grass (Brachiaria decumbens), large crabgrass (Digitaria sanguinalis), crabgrass, Brazil (Brazilian crabgrass, Digitaria horizontalis), fall panicum (Panicum dichotomiflorum), giant foxtail (Setaria faberii), green foxtail (Setaria viridis), goosegrass (Eleusine indica), johnsongrass (Sorghum halepense), common ragweed (Ambrosia elation), barnyardgrass (Echinochloa crus-galli), southern sandbur (Cenchrus echinatus), arrowleaf sida (Sida rhombifolia), Italian ryegrass (Lolium multiflorum), dayflower, VA (Virginia (VA) dayflower, Commelina virginica), field bindweed (Convolvulus arvensis), cocklebur (common cocklebur, Xanthium strumarium), morningglory (Ipomoea coccinea), nightshade (eastern black nightshade, Solanum ptycanthum), kochia (Kochia scoparia), yellow nutsedge (Cyperus esculentus), and hairy beggarticks (Bidens pilosa), were planted into a silt loam soil and treated preemergence with test chemicals formulated in a non-phytotoxic solvent mixture which included a surfactant.
# At the same time, plants from these crop and weed species and also horseweed (Canada horseweed, Conyza canadensis), smartweed (ladysthumb smartweed, Polygonum persicaria), waterhemp_RES1, (ALS & Triazine resistant common waterhemp, Amaranthus rudis), and waterhemp_RES2, (ALS & HPPD resistant common waterhemp, Amaranthus rudis) were treated with postemergence applications of test chemicals formulated in the same manner. Plants ranged in height from 2 to 18 cm for postemergence treatments (1- to 4-leaf stage). Treated plants and controls were maintained in a greenhouse for 14 to 21 days, after which time all species were compared to controls and visually evaluated. Plant response ratings, summarized in Table F, are based on a scale of 0 to 100 where 0 is no effect and 100 is complete control. A dash (-) response means no test result.
# [5] = tested on: kochia; assay: Test A preemergence; format: in vivo, Kochia scoparia
# Procedure, shortened: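 After sowing in a sand–loam mix, pots received compound preemergence by directed soil spray, or postemergence once plants reached the one- to two-leaf stage (2–10 cm). Formulation contained surfactant in a non-phytotoxic solvent. Injury was scored visually after ~10 greenhouse days, 0–100 scale.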
# [6] = postemergence, 250 g ai/ha, scale 0 to 100 (0 no effect, 100 complete control)
# [7] = postemergence, 62 g ai/ha, scale 0 to 100, 0 no effect, 100 complete control
# [8] = postemergence, 125 g ai/ha, scale 0 to 100, 0 no effect, 100 complete control
# [9] = 31 g ai/ha, scale 0 to 100 (0 no effect, 100 complete control), 13 to 15 days
# [10] = 125 g ai/ha, scale 0 to 100, 0 is no effect, 100 is complete control
# [11] = Preemergence, 62 g ai/ha, scale 0 to 100
# [12] = Preemergence, 125 g ai/ha, scale 0 to 100
# [13] = preemergence, 16 g ai/ha, scale 0 to 100, 100 is complete control
# [14] = 125 g ai/ha, visual injury, 0 to 100 scale, approx. 10 days
# [15] = 500 g ai/ha, visual injury after approx. 10 days, 0 to 100 scale (0 no effect, 100 complete control)
# [16] = Preemergence, 250 g ai/ha, scale 0 to 100
Structure (SMILES),"Goosegrass plant response rating ([1]; Postemergence, 31 g ai/ha)","Plant response rating, Goosegrass [1, 6]","Plant response rating, Goosegrass [1, 8]","Bromegrass, Downy plant response rating ([2]; Postemergence, 31 g ai/ha)","Plant response rating, Bromegrass, Downy [2, 6]","Plant response rating, Bromegrass, Downy [2, 8]","Kochia plant response rating [5, 14]","Kochia plant response rating [5, 15]",further results
CCc1cc(C(=O)NCC(F)(F)F)nn1Cc1cccc(OC(F)(F)F)c1 [Compound 20],0,15,5,0,10,5,–,–,"Plant response rating, Goosegrass [1, 7]: 5; Plant response rating, Bromegrass, Downy [2, 7]: 0"
CCCNC(=O)c1cc(CC)n(Cc2cccc(OC(F)(F)F)c2)n1 [Compound 27],0,10,0,0,10,5,–,–,"Plant response rating, Goosegrass [1, 7]: 0; Plant response rating, Bromegrass, Downy [2, 7]: 5"
CCc1cc(C(=O)NOC(C)C)nn1Cc1cccc(OC(F)(F)F)c1 [Compound 70],5,15,10,0,5,5,–,–,"Plant response rating (scale of 0 to 100), Bromegrass, Downy [3]: 80; Bromegrass, Downy plant response rating [3, 9]: 20; Plant response rating, Bromegrass, Downy ([3]; 13 to 15 days): 35; Bromegrass, Downy plant response rating [3, 10]: 40; Plant response rating, Goosegrass [1, 7]: 5; Plant response rating, Bromegrass, Downy [2, 7]: 0"
CCONC(=O)c1cc(CC)n(Cc2cccc(OC(F)(F)F)c2)n1 [Compound 72],0,5,0,5,15,15,–,–,"Plant response rating (scale of 0 to 100), Bromegrass, Downy [3]: 90; Bromegrass, Downy plant response rating [3, 9]: 5; Plant response rating, Bromegrass, Downy ([3]; 13 to 15 days): 45; Bromegrass, Downy plant response rating [3, 10]: 80; Goosegrass plant response rating ([1]; postemergence, 62 g ai/ha): 0; Bromegrass, Downy plant response rating ([2]; postemergence, 62 g ai/ha): 5"
Cc1cc(C(=O)NCC(F)(F)F)nn1Cc1ccnc(C(F)(F)F)c1 [Compound 74],5,10,5,0,0,0,–,–,"Plant response rating (scale of 0 to 100), Bromegrass, Downy [3]: 95; Bromegrass, Downy plant response rating [3, 9]: 0; Plant response rating, Bromegrass, Downy ([3]; 13 to 15 days): 5; Bromegrass, Downy plant response rating [3, 10]: 50; Goosegrass plant response rating ([1]; postemergence, 62 g ai/ha): 5; Bromegrass, Downy plant response rating ([2]; postemergence, 62 g ai/ha): 0"
CCc1cc(-c2ccc(C(F)(F)F)cc2)nn1Cc1ccnc(C(F)(F)F)c1 [Compound 110],–,–,–,–,–,–,–,–,"Plant response rating, Surinam Grass ([4]; Preemergence, 31 g ai/ha, scale 0 to 100): 5; Plant response rating, Surinam Grass [4, 11]: 5; Plant response rating, Surinam Grass [4, 12]: 10; Plant response rating, Surinam Grass ([4]; preemergence, 8 g ai/ha, scale 0 to 100, 100 is complete control): 0; Plant response rating, Surinam Grass [4, 13]: 0"
CCc1cc(C(=O)NOC(C)C)nn1Cc1ccnc(OC(F)F)c1 [Compound 126],–,–,–,–,–,–,100,100,–
CCCc1cc(C(=O)NCC(F)(F)F)nn1Cc1ccnc(OC(F)F)c1 [Compound 127],–,–,–,–,–,–,100,100,–
CCOc1cc(C(=O)NCC(F)(F)F)nn1Cc1ccnc(OC(F)F)c1 [Compound 128],–,–,–,–,–,–,100,100,–
CCCNC(=O)c1cc(OCC)n(Cc2ccnc(OC(F)F)c2)n1 [Compound 136],–,–,–,–,–,–,100,100,–
CCCc1cc(C(=O)NC(C)C)nn1Cc1cc(C(F)(F)F)nn1C [Compound 201],–,–,–,–,–,–,–,–,"Plant response rating, Surinam Grass [4, 11]: 0; Plant response rating, Surinam Grass [4, 12]: 35; Plant response rating, Surinam Grass [4, 16]: 65; Plant response rating, Surinam Grass [4, 13]: 0"
CCCc1cc(C(=O)NC2CC2)nn1Cc1ccnc(OC(F)F)c1 [Compound 205],–,–,–,–,–,–,–,–,"Kochia plant response rating (0 to 100 scale) ([5]; 125 g ai/ha, visual injury approx. 10 days after treatment): 100"
CCc1cc(C(=O)NCC(F)(F)F)nn1Cc1ccnc(Br)c1 [Compound 224],–,–,–,–,–,–,–,–,"Plant response rating, Surinam Grass [4, 11]: 70; Plant response rating, Surinam Grass [4, 12]: 50; Plant response rating, Surinam Grass [4, 16]: 65"
